Reference: US5364844A, “Renin-inhibitory oligopeptides, their preparation and use” (Sankyo Company, Limited, priority 1988, dated 1994)

The compounds below were run against T1, human renin (Homo sapiens, UniProt P00797) (assay: Inhibition of human renin activity (procedure of Kokubu et al.)). Conditions: sheep angiotensinogen, pH 7.3, 10 minutes at 37° C.; mean of 3 or 4 experiments.
T1 sequence (P00797 67-406): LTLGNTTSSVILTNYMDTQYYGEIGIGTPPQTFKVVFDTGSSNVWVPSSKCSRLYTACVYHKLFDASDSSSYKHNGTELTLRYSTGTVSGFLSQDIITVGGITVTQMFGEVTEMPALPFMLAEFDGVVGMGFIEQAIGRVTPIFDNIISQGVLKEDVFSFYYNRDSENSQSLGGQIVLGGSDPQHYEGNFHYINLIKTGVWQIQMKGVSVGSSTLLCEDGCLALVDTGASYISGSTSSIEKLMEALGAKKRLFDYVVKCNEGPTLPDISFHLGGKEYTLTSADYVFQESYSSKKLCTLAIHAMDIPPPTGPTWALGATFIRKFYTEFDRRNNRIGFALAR
Format: biochemical
Experimental: The ability of various compounds of the invention to inhibit the activity of renin was determined according to the following method, which follows essentially the procedure of Kokubu et al. [Hypertension, 5, 191-197 (1983)].
Specifically, each test compound was dissolved in 60% v/v aqueous ethanol. Human renin activity in the presence and absence of each compound was measured using sheep angiotensinogen. The total volume of 1 ml of assay mixture contained 0.1 mole/liter phosphate buffer (pH 7.3), human renin (equivalent to 0.5 ng angiotensin I per ml per minute), sheep angiotensinogen (equivalent to 200 ng angiotensin I), […], 6% v/v ethanol and angiotensinase inhibitors (10 mmole/liter sodium ethylenediaminetetraacetate and 3.4 mmole/liter 8-hydroxyquinoline). The mixture was allowed to react for 10 minutes at 37° C., and then the reaction was stopped by placing the reaction tube in a boiling water bath for 5 minutes. The mixture was then centrifuged and the supernatant (0.05-0.1 ml) was used to assay remaining angiotensin I.
An identical experiment was carried out, as a control, except that the test compound was omitted. From the values obtained were calculated the % inhibition of renin activity achieved by each test compound. The results are shown in the following Table 9, in which the compounds of the invention are identified by the numbers of the Examples given hereafter in which are described their preparation. The values given are the mean of 3 or 4 experiments.

Row | Inhibitory Activity (%) Against Human Renin [%] | Compound
1 | 90.9 | CNC(=O)[C@@H](C[C@H](O)[C@H](CC1CCCCC1)NC(=O)[C@H](Cc1cscn1)NC(=O)[C@@H](CC(=O)N1CCOCC1)Cc1ccccc1)C(C)(C)O [Example 9]
2 | 97.4 | CCC(C)CNC(=O)[C@@H](C[C@H](O)[C@H](CC(C)C)NC(=O)[C@H](Cc1cscn1)NC(=O)[C@@H](CC(=O)N(C)C1CCCCC1)Cc1cccc2ccccc12)C(C)(C)O (mixture of isomers) [Example 8, (2S, 4S, 5S)-5-{N-[2(R)-(1-Naphthylmethyl)-3-(N-cyclohexyl-N-methylaminocarbonyl)propionyl]-3-(4-thiazolyl)-L-alanyl}amino-4-hydroxy-2-(1-hydroxy-1-methylethyl)-7-methyl-N-[2-(RS)-methylbutyl]octanamide]

The next lines start with the compound.

Row | Compound | Inhibitory Activity (%) Against Human Renin [%]
3 | CC[C@H](C)CNC(=O)[C@@H](C[C@H](O)[C@H](CC1CCCCC1)NC(=O)[C@H](Cc1cscn1)NC(=O)[C@H](Cc1cccc2ccccc12)NC(=O)CN1CCOCC1)C(C)(C)O [Example 2, (2S, 4S, 5S)-5-{N-[N-Morpholinoacetyl-3-(1-naphthyl)-L-alanyl]-3-(4-thiazolyl)-L-alanyl}amino-6-cyclohexyl-4-hydroxy-2-(1-hydroxy-1-methylethyl)-N-[2(S)-methylbutyl]hexanamide] | 96.3
4 | CCC(C)CNC(=O)[C@@H](C[C@H](O)[C@H](CC(C)C)NC(=O)[C@H](Cc1cscn1)NC(=O)[C@H](Cc1cccc2ccccc12)NC(=O)OC(C)(C)C)C(C)(C)O (mixture of isomers) [Example 7, (2S, 4S, 5S)-5-{N-[N-(t-Butoxycarbonyl)-3-(1-naphthyl)-L-alanyl]-3-(4-thiazolyl)-L-alanyl}amino-4-hydroxy-2-(1-hydroxy-1-methylethyl)-7-methyl-N-[2(RS)-methylbutyl]octanamide] | 98.2
5 | CC[C@H](C)CNC(=O)[C@@H](C[C@H](O)[C@H](CC1CCCCC1)NC(=O)[C@H](Cc1cscn1)NC(=O)[C@@H](CC(=O)N1CCOCC1)Cc1cccc2ccccc12)C(C)(C)O [Example 4, (2S, 4S, 5S)-5-{N-[2(R)-(1-Naphthylmethyl)-3-(morpholinocarbonyl)propionyl]-3-(4-thiazolyl)-L-alanyl}amino-6-cyclohexyl-4-hydroxy-2-(1-hydroxy-1-methylethyl)-N-[2(S)-methylbutyl]hexanamide] | 96.8
6 | CC[C@H](C)CNC(=O)[C@@H](C[C@H](O)[C@H](CC1CCCCC1)NC(=O)[C@H](Cc1cscn1)NC(=O)[C@H](Cc1ccccc1)NC(=O)CN1CCOCC1)C(C)(C)O [Example 3, (2S, 4S, 5S)-S-{N-[N-Morpholinoacetyl-L-phenylalanyl]-3-(4-thiazolyl)-L-alanyl}amino-6-cyclohexyl-4-hydroxy-2-(1-hydroxy-1-methylethyl)-N-[2(S)-methylbutyl]hexanamide] | 96.7
7 | CC[C@H](C)CNC(=O)[C@@H](C[C@H](O)[C@H](CC1CCCCC1)NC(=O)[C@H](Cc1cscn1)NC(=O)[C@@H](CC(=O)N1CCOCC1)Cc1ccccc1)C(C)(C)O [Example 5, (2S, 4S, 5S)-5-{N-[2(R)-Benzyl-3-(morpholinocarbonyl)propionyl]-3-(4-thiazolyl)-L-alanyl}amino-6-cyclohexyl-4-hydroxy-2-(1-hydroxy-1-methylethyl)-N-[2 (S)-methylbutyl]hexanamide] | 92.2
